Data from US20220023401A1 (priority 2020, published 2022).
Values joined by “and” are separate entries in the source; they are usually repeats but may differ in a detail not shown here. Equal values may be shown once.

Tests used:
baboon anti-Aβ antibody = assay type: binding, baboons
[1] = tested on: sera from vaccinated baboons (anti-Aβ antibodies); assay type: binding
[2] = tested on: antisera from immunized Cynomolgus macaques; assay type: binding; parameters: unit not given here
Aβ1-42 = tested on: Aβ1-42; parameters: species or system guinea pigs; settings: guinea pig, in vivo
MvF4 Th (SEQ ID NO: 44) = tested on: MvF4 Th (SEQ ID NO: 44); parameters: species or system guinea pigs; settings: guinea pig, in vivo
[3] = tested on: HBsAg2 Th (SEQ ID NO: 45); parameters: species or system guinea pigs; settings: guinea pig, in vivo
[4] = tested on: Peripheral Blood Mononuclear Cells (PBMCs); assay type: cell-based, Cynomolgus macaque
[5] = tested on: Peripheral blood mononuclear cells (PBMC); assay type: cell-based, human
[6] = tested on: Peripheral blood mononuclear cells (PBMC); assay type: cell-based, human; remark: listed apart in the source

| Substance | ELISA Titer (Log10) [1] | Specificity analysis of antisera (ELISA reactivity with peptide) [2] | also measured |
| --- | --- | --- | --- |
| AEFRHDSGYE (PEPTIDE (1)..(10) Abeta 2-11 or APP 770(A673-E682); listed as Homo sapiens) [SEQ ID NO: 17] | 0.25 Log10 and 0.35 Log10 and 0.19 Log10 | 0.058 and 0.059 and 0.054 and 0.060 | Percent (%) Inhibition ELISA after peptide pre-absorption of sera (baboon anti-Aβ antibody): 0% |
| Aβ1-14-ϵK-HBsAg2 Th [SEQ ID NO: 63] | – | – | Aβ1-42 ELISA (SEQ ID NO: 1) Log10 Titer (Aβ1-42): 3.596 Log10 and 3.653 Log10 and 3.696 Log10 and 3.681 Log10 and 3.836 Log10 and 3.744 Log10; Aβ1-42 ELISA (SEQ ID NO: 1) Log10 Titer, Geomean (Aβ1-42): 3.700 Log10; MvF4 Th ELISA (SEQ ID NO: 44) Log10 Titer (MvF4 Th (SEQ ID NO: 44)): 0.575 Log10 and 0.423 Log10 and 0.380 Log10 and 0.279 Log10 and 0.336 Log10 and 0.425 Log10; MvF4 Th ELISA (SEQ ID NO: 44) Log10 Titer, Geomean (MvF4 Th (SEQ ID NO: 44)): 0.393 Log10; reactivity against the two T helper epitopes (SEQ ID NOs: 44 and 45) (MvF4 Th (SEQ ID NO: 44)): little or no reactivity; HBsAg2 Th ELISA (SEQ ID NO: 45) Log10 Titer, Geomean [3]: 0.375 Log10 |
| Aβ1-14-ϵK-KKK-MvF4 Th [SEQ ID NO: 62] | – | – | Aβ1-42 ELISA (SEQ ID NO: 1) Log10 Titer, Geomean (Aβ1-42): 4.208 Log10; MvF4 Th ELISA (SEQ ID NO: 44) Log10 Titer (MvF4 Th (SEQ ID NO: 44)): 0.268 Log10 and 0.216 Log10 and 0.196 Log10 and 0.179 Log10 and 0.332 Log10 and 0.286 Log10; MvF4 Th ELISA (SEQ ID NO: 44) Log10 Titer, Geomean (MvF4 Th (SEQ ID NO: 44)): 0.240 Log10; reactivity against the two T helper epitopes (SEQ ID NOs: 44 and 45) (MvF4 Th (SEQ ID NO: 44)): little or no reactivity; HBsAg2 Th ELISA (SEQ ID NO: 45) Log10 Titer, Geomean [3]: 0.397 Log10 |
| EEISEVKMDA (PEPTIDE (1)..(10) Abeta -8-2 or APP 770(E664-A673); listed as Homo sapiens) [SEQ ID NO: 9] | 0.24 Log10 and 0.30 Log10 and 0.21 Log10 and 0.22 Log10 | 0.082 and 0.092 and 0.081 and 0.076 | – |
| EFRHDSGYEV (PEPTIDE (1)..(10) Abeta 3-12 or APP 770(E674-V683); listed as Homo sapiens) [SEQ ID NO: 18] | 0.24 Log10 and 0.30 Log10 and 0.18 Log10 | 0.047 and 0.060 and 0.042 and 0.052 | Percent (%) Inhibition ELISA after peptide pre-absorption of sera (baboon anti-Aβ antibody): 0% and 1% and 3% |
| EISEVKMDAE (PEPTIDE (1)..(10) Abeta -7-3 or APP 770(E665-E674); listed as Homo sapiens) [SEQ ID NO: 10] | 0.23 Log10 and 0.25 Log10 and 0.16 Log10 and 0.14 Log10 | 0.060 and 0.056 and 0.064 and 0.053 | – |
| EVKMDAEFRH (PROPEP (1)..(10) Abeta -4-6 or APP 770(E668-H677); listed as Homo sapiens) [SEQ ID NO: 13] | 0.19 Log10 and 0.23 Log10 and 0.16 Log10 and 0.14 Log10 | 0.046 and 0.047 and 0.054 | – |
| FRHDSGYEVH (PEPTIDE (1)..(10) Abeta 4-13 or APP 770(F675-H684); listed as Homo sapiens) [SEQ ID NO: 19] | 0.20 Log10 and 0.40 Log10 and 0.22 Log10 and 0.30 Log10 | 0.085 and 0.076 and 0.066 and 0.096 | – |
| GYEVHHQKLV (PEPTIDE (1)..(10) Abeta 9-18 or APP 770(G680-V689); listed as Homo sapiens) [SEQ ID NO: 24] | 0.13 Log10 and 0.27 Log10 and 0.19 Log10 and 0.12 Log10 | 0.055 and 0.067 and 0.052 and 0.059 | – |
| HDSGYEVHHQ (PEPTIDE (1)..(10) Abeta 6-15 or APP 770(H677-Q686); listed as Homo sapiens) [SEQ ID NO: 21] | – | 0.266 and 0.494 and 0.419 and 0.332 | – |
| HHQKLVFFAE (PEPTIDE (1)..(10) Abeta 13-22 or APP 770(H684-E693); listed as Homo sapiens) [SEQ ID NO: 28] | 0.19 Log10 and 0.22 Log10 and 0.13 Log10 and 0.12 Log10 | 0.044 and 0.052 and 0.046 and 0.032 | – |
| HQKLVFFAED (PEPTIDE (1)..(10) Abeta 14-23 or APP 770(H685-D694); listed as Homo sapiens) [SEQ ID NO: 29] | 0.18 Log10 and 0.21 Log10 and 0.13 Log10 | 0.050 and 0.058 and 0.047 | – |
| ISEVKMDAEF (PEPTIDE (1)..(10) Abeta -6-4 or APP 770(I666-F675); listed as Homo sapiens) [SEQ ID NO: 11] | 0.20 Log10 and 0.15 Log10 and 0.13 Log10 | 0.055 and 0.058 and 0.063 and 0.062 | – |
| KMDAEFRHDS (PEPTIDE (1)..(10) Abeta -2-8 or APP 770(K670-S679); listed as Homo sapiens) [SEQ ID NO: 15] | 0.26 Log10 and 0.36 Log10 and 0.41 Log10 and 0.51 Log10 | – | – |
| MDAEFRHDSG (PEPTIDE (1)..(10) Abeta -1-9 or APP 770(M671-G680); listed as Homo sapiens) [SEQ ID NO: 16] | 0.26 Log10 and 0.32 Log10 and 0.16 Log10 and 0.17 Log10 | 0.056 and 0.061 and 0.051 | Percent (%) Inhibition ELISA after peptide pre-absorption of sera (baboon anti-Aβ antibody): 8% |
| QKLVFFAEDV (PEPTIDE (1)..(10) Abeta 15-24 or APP 770(Q686-V695); listed as Homo sapiens) [SEQ ID NO: 30] | – | 0.043 and 0.055 and 0.062 and 0.059 | – |
| RHDSGYEVHH (PEPTIDE (1)..(10) Abeta 5-14 or APP 770(R676-H685); listed as Homo sapiens) [SEQ ID NO: 20] | 0.23 Log10 and 0.34 Log10 and 0.27 Log10 and 0.41 Log10 | 0.296 and 0.400 and 0.453 and 0.461 | – |
| SEVKMDAEFR (PEPTIDE (1)..(10) Abeta -5-5 or APP 770(S667-R676); listed as Homo sapiens) [SEQ ID NO: 12] | 0.21 Log10 and 0.24 Log10 and 0.16 Log10 and 0.13 Log10 | 0.056 and 0.053 and 0.054 and 0.050 | – |
| SGYEVHHQKL (PEPTIDE (1)..(10) Abeta 8-17 or APP 770(S679-L688); listed as Homo sapiens) [SEQ ID NO: 23] | – | 0.097 and 0.071 and 0.077 and 0.082 | – |
| TEEISEVKMD (PEPTIDE (1)..(10) Abeta -9-1 or APP 770(T663-D672); listed as Homo sapiens) [SEQ ID NO: 8] | 0.23 Log10 and 0.26 Log10 and 0.16 Log10 and 0.15 Log10 | 0.075 and 0.084 and 0.061 and 0.078 | – |
| VKMDAEFRHD (PEPTIDE (1)..(10) Abeta -3-7 or APP 770(V669-D678); listed as Homo sapiens) [SEQ ID NO: 14] | 0.27 Log10 and 0.46 Log10 and 0.48 Log10 and 0.55 Log10 | 0.068 and 0.053 and 0.061 and 0.054 | – |
| YEVHHQKLVF (PEPTIDE (1)..(10) Abeta 10-19 or APP 770(Y681-F690); listed as Homo sapiens) [SEQ ID NO: 25] | 0.16 Log10 and 0.43 Log10 and 0.15 Log10 and 0.22 Log10 | 0.092 and 0.069 and 0.058 | – |
| phytohaemagglutinin [PHA] | – | – | IL-2 cytokine concentration [4]: 97.5 ± 6.6 pg/mL and 90.6 ± 12.4 pg/mL and 96.1 ± 13.3 pg/mL; IL-6 cytokine concentration [4]: 69.1 ± 12.0 pg/mL and 70.6 ± 15.7 pg/mL and 66.2 ± 7.3 pg/mL; TNF-α cytokine concentration [4]: 91.0 ± 29.1 pg/mL and 96.1 ± 22.2 pg/mL and 89.0 ± 13.7 pg/mL; IFN-γ mean cytokine concentration, Week 0 [5]: >320.00 pg/mL; IFN-γ mean cytokine concentration, Week 16 [5]: >318.91 pg/mL; IL-2 mean cytokine concentration, Week 0 [5]: 10.38^7 pg/mL; IL-2 mean cytokine concentration, Week 16 [5]: 12.84^7 pg/mL; IL-6 mean cytokine concentration, Week 0 [5]: >320.00 pg/mL; IL-6 mean cytokine concentration, Week 16 [5]: >320.00 pg/mL; IL-10 mean cytokine concentration, Week 0 [5]: 173.83 pg/mL; IL-10 mean cytokine concentration, Week 16 [5]: >162.77 pg/mL; TNF-α mean cytokine concentration, Week 0 [5]: >313.01 pg/mL; TNF-α mean cytokine concentration, Week 16 [5]: >300.87 pg/mL; Mean stimulation index, Difference [6]: −0.98; Mean stimulation index, Week 0 [6]: 28.73; Mean stimulation index, Week 16 [6]: 27.75; proliferation response by lymphocytes when added to the culture medium ([6]; 10 μg/mL): positive proliferation responses |
